Source: PubChem BioAssay AID2060496 (Molecular Pharmacology Branch, DTP, NCI, 2025)

System: 276233-004-R-J1-PDC complex spheroid viability
Experiment: Anticancer human tumor 276233-004-R-J1-PDC patient-derived colon adenocarcinoma cell line growth inhibition [GQUAD]
Details: for IC50: curve of first compound; for viability, T/C: stronger effect = lower value
Procedure, shortened: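 Viability of tumor cells grown as complex spheroids with endothelial and stromal cells, exposed to drug combinations. Top concentration at or near clinical Cmax (else 10 microM), diluted in half-log increments.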

[1] = second compound 0.0316 µM, first compound 0.0316 µM
[2] = second compound 0.0316 µM, first compound 0.1 µM
[3] = second compound 0.0316 µM, first compound 0.316 µM
[4] = second compound 0.0316 µM, first compound 1 µM
[5] = second compound 0.0316 µM, first compound 3.16 µM
[6] = second compound 0.0316 µM, first compound 10 µM
[7] = second compound 0.1 µM, first compound 0.0316 µM
[8] = second compound 0.1 µM, first compound 0.1 µM
[9] = second compound 0.1 µM, first compound 0.316 µM
[10] = second compound 0.1 µM, first compound 1 µM
[11] = second compound 0.1 µM, first compound 3.16 µM
[12] = second compound 0.1 µM, first compound 10 µM
[13] = second compound 0.316 µM, first compound 0.0316 µM
[14] = second compound 0.316 µM, first compound 0.1 µM
[15] = second compound 0.316 µM, first compound 0.316 µM
[16] = second compound 0.316 µM, first compound 1 µM
[17] = second compound 0.316 µM, first compound 3.16 µM
[18] = second compound 0.316 µM, first compound 10 µM
[19] = second compound 1 µM, first compound 0.0316 µM
[20] = second compound 1 µM, first compound 0.1 µM
[21] = second compound 1 µM, first compound 0.316 µM
[22] = second compound 1 µM, first compound 1 µM
[23] = second compound 1 µM, first compound 3.16 µM
[24] = second compound 1 µM, first compound 10 µM
[25] = second compound 3.16 µM, first compound 0.0316 µM
[26] = second compound 3.16 µM, first compound 0.1 µM
[27] = second compound 3.16 µM, first compound 0.316 µM
[28] = second compound 3.16 µM, first compound 1 µM
[29] = second compound 3.16 µM, first compound 3.16 µM
[30] = second compound 3.16 µM, first compound 10 µM
[31] = second compound 10 µM, first compound 0.0316 µM
[32] = second compound 10 µM, first compound 0.1 µM
[33] = second compound 10 µM, first compound 0.316 µM
[34] = second compound 10 µM, first compound 1 µM
[35] = second compound 10 µM, first compound 3.16 µM
[36] = second compound 10 µM, first compound 10 µM
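Note: spheroids exposed to drugs for seven days.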
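Throughout, for viability, T/C: 100% = DMSO vehicle control viability.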

## COc1ncnc(C2CC2)c1-c1ncc2cnn(Cc3ccc(-c4nc(C(F)(F)F)cn4C(C)C)cc3)c2n1 + Cc1[nH]c2ccc(F)cc2c1-c1nc2c3cccnc3c3ncccc3c2[nH]1
Second compound 0.0316 µM
  IC50: > 10000 nM
Second compound 0.1 µM
  IC50: > 10000 nM
Second compound 0.316 µM
  IC50: > 10000 nM
Second compound 1 µM
  IC50: 886 nM
Second compound 3.16 µM
  IC50: < 31.6 nM
Second compound 10 µM
  IC50: < 31.6 nM
[1]
  viability, T/C: 87.2%
[2]
  viability, T/C: 81.3%
[3]
  viability, T/C: 79.2%
[4]
  viability, T/C: 76.4%
[5]
  viability, T/C: 80.4%
[6]
  viability, T/C: 76.2%
[7]
  viability, T/C: 75.5%
[8]
  viability, T/C: 79.2%
[9]
  viability, T/C: 63.5%
[10]
  viability, T/C: 75.7%
[11]
  viability, T/C: 66.6%
[12]
  viability, T/C: 71%
[13]
  viability, T/C: 70%
[14]
  viability, T/C: 63.3%
[15]
  viability, T/C: 83.6%
[16]
  viability, T/C: 53.4%
[17]
  viability, T/C: 73%
[18]
  viability, T/C: 72%
[19]
  viability, T/C: 58%
[20]
  viability, T/C: 42.3%
[21]
  viability, T/C: 57.8%
[22]
  viability, T/C: 51.4%
[23]
  viability, T/C: 48.3%
[24]
  viability, T/C: 45.3%
[25]
  viability, T/C: 18.7%
[26]
  viability, T/C: 16.2%
[27]
  viability, T/C: 15.2%
[28]
  viability, T/C: 14.9%
[29]
  viability, T/C: 12.7%
[30]
  viability, T/C: 20.7%
[31]
  viability, T/C: 34.3%
[32]
  viability, T/C: 29.5%
[33]
  viability, T/C: 47.7%
[34]
  viability, T/C: 31.4%
[35]
  viability, T/C: 27.4%
[36]
  viability, T/C: 33.6%

## CC1COCCN1c1cc(C2(O)CC3CCC(C2)O3)c2cnn(-c3ccn[nH]3)c2n1 (stereo unspecified) + CN(C)c1ccc(Nc2c3ccc(NC(=O)CCN4CCCC4)cc3nc3cc(NC(=O)CCN4CCCC4)ccc23)cc1
Second compound 0.0316 µM
  IC50: 2840 nM
Second compound 0.1 µM
  IC50: 2410 nM
Second compound 0.316 µM
  IC50: 341 nM
Second compound 1 µM
  IC50: 555 nM
Second compound 3.16 µM
  IC50: 90.9 nM
Second compound 10 µM
  IC50: 43.4 nM
[1]
  viability, T/C: 74.7%
[2]
  viability, T/C: 80.9%
[3]
  viability, T/C: 72.7%
[4]
  viability, T/C: 69%
[5]
  viability, T/C: 47.7%
[6]
  viability, T/C: 47.2%
[7]
  viability, T/C: 77.4%
[8]
  viability, T/C: 89.3%
[9]
  viability, T/C: 75%
[10]
  viability, T/C: 60.8%
[11]
  viability, T/C: 45.2%
[12]
  viability, T/C: 46%
[13]
  viability, T/C: 64.9%
[14]
  viability, T/C: 50.3%
[15]
  viability, T/C: 50.4%
[16]
  viability, T/C: 41.9%
[17]
  viability, T/C: 50.8%
[18]
  viability, T/C: 28.8%
[19]
  viability, T/C: 55.5%
[20]
  viability, T/C: 51.1%
[21]
  viability, T/C: 50.1%
[22]
  viability, T/C: 47.2%
[23]
  viability, T/C: 43.7%
[24]
  viability, T/C: 27.6%
[25]
  viability, T/C: 57.6%
[26]
  viability, T/C: 39.4%
[27]
  viability, T/C: 52.8%
[28]
  viability, T/C: 37.8%
[29]
  viability, T/C: 39.5%
[30]
  viability, T/C: 27.3%
[31]
  viability, T/C: 53.5%
[32]
  viability, T/C: 42.1%
[33]
  viability, T/C: 37.6%
[34]
  viability, T/C: 37.4%
[35]
  viability, T/C: 29.3%
[36]
  viability, T/C: 25.4%

## CC[C@@]1(O)C(=O)OCc2c1cc1n(c2=O)Cc2cc3c(CN(C)C)c(O)ccc3nc2-1 + Cc1[nH]c2ccc(F)cc2c1-c1nc2c3cccnc3c3ncccc3c2[nH]1
Second compound 0.0316 µM
  IC50: > 316 nM
Second compound 0.1 µM
  IC50: > 316 nM
Second compound 0.316 µM
  IC50: > 316 nM
Second compound 1 µM
  IC50: > 316 nM
Second compound 3.16 µM
  IC50: < 0.999 nM
Second compound 10 µM
  IC50: < 0.999 nM
Second compound 0.0316 µM, first compound 0.000999 µM
  viability, T/C: 83.1%
Second compound 0.0316 µM, first compound 0.00316 µM
  viability, T/C: 76.6%
Second compound 0.0316 µM, first compound 0.00999 µM
  viability, T/C: 80.8%
[1]
  viability, T/C: 89.2%
Second compound 0.0316 µM, first compound 0.0999 µM
  viability, T/C: 92%
[3]
  viability, T/C: 91.5%
Second compound 0.1 µM, first compound 0.000999 µM
  viability, T/C: 93.4%
Second compound 0.1 µM, first compound 0.00316 µM
  viability, T/C: 102%
Second compound 0.1 µM, first compound 0.00999 µM
  viability, T/C: 102%
[7]
  viability, T/C: 87%
Second compound 0.1 µM, first compound 0.0999 µM
  viability, T/C: 88.2%
[9]
  viability, T/C: 96.9%
Second compound 0.316 µM, first compound 0.000999 µM
  viability, T/C: 78.7%
Second compound 0.316 µM, first compound 0.00316 µM
  viability, T/C: 88.4%
Second compound 0.316 µM, first compound 0.00999 µM
  viability, T/C: 82.7%
[13]
  viability, T/C: 89.6%
Second compound 0.316 µM, first compound 0.0999 µM
  viability, T/C: 99.6%
[15]
  viability, T/C: 82.8%
Second compound 1 µM, first compound 0.000999 µM
  viability, T/C: 71.2%
Second compound 1 µM, first compound 0.00316 µM
  viability, T/C: 78.4%
Second compound 1 µM, first compound 0.00999 µM
  viability, T/C: 76.2%
[19]
  viability, T/C: 67.9%
Second compound 1 µM, first compound 0.0999 µM
  viability, T/C: 58.2%
[21]
  viability, T/C: 77.7%
Second compound 3.16 µM, first compound 0.000999 µM
  viability, T/C: 48.4%
Second compound 3.16 µM, first compound 0.00316 µM
  viability, T/C: 54.4%
Second compound 3.16 µM, first compound 0.00999 µM
  viability, T/C: 48.5%
[25]
  viability, T/C: 51.6%
Second compound 3.16 µM, first compound 0.0999 µM
  viability, T/C: 61.9%
[27]
  viability, T/C: 58.3%
Second compound 10 µM, first compound 0.000999 µM
  viability, T/C: 46%
Second compound 10 µM, first compound 0.00316 µM
  viability, T/C: 40.5%
Second compound 10 µM, first compound 0.00999 µM
  viability, T/C: 53.9%
[31]
  viability, T/C: 58%
Second compound 10 µM, first compound 0.0999 µM
  viability, T/C: 50.7%
[33]
  viability, T/C: 46.7%
